Measured values reported in US11078202B2, “β-lactamase inhibitor and use thereof” (priority 2018, dated 2021).
Counter-ions that a name gives are not always drawn.

Legend:
Assay type in all cases: cell-based
[1] = test system: Klebsiella pneumoniae XNWB 0004; assay: MIC assay of test compounds combined with imipenem (4 μg/mL); details: imipenem 4 μg/mL fixed
Method: (§1) The bacterial strains used for the minimum inhibitory concentration (MIC) test were frozen in a −80° C. ULT freezer and thawed 2 days before use. A small amount of frozen bacterial strains were scraped using a sterile inoculating loop, streaked onto a TSA solid culture dish for inoculation, and then cultured for 20-24 h at 35±2° C. in a normal atmospheric environment. 5-10 colonies with similar morphology were picked from the culture dish using a sterile inoculating loop and then re-streaked onto a suitable solid culture dish. Then the dish was placed into a normal incubator for culture for 20-24 h at 35±2° C. 5-10 single bacterial colonies were picked from the solid culture dish, resuspended in 500 μL of 0.9% NaCl, and adjusted to an OD600 of 0.1-0.15 with a spectrophotometer. The bacteria were then diluted 300-fold with 1.1×CAMHB. […] Dilution of test compounds: […] 2 μL of each compound in the dilution master plate of the test compounds was transferred to the corresponding well of the assay plates. In the mean time, 2 μL of 100% DMSO was transferred to the compound-free wells (GC and SC wells). (1) 8 μL of imipenem in the additive plate of imipenem was transferred to the corresponding wells of the assay plates; (2) 8 μL of ceftazidime in the additive plate of ceftazidime was transferred to the corresponding wells of the assay plates; (3) 8 μL of ampicillin in the additive plate of ampicillin was transferred to the corresponding wells of the assay plates. 90 μL of corresponding bacterial inocula were added to wells (except for SC wells) of the assay plates. After addition, the 6 assay plates were covered by sterile covers. The mixtures in the assay plates were centrifuged by a centrifuge at 1000 rpm for 30 s, and mixed uniformly by oscillating with a microplate oscillator at 800 rpm for 1 min, and then cultured in a common incubator for 16-20 h at 35±2° C. The minimum inhibitory concentration of each compound was recorded by reference to guidelines from the Clinical and Laboratory Standards Institute. […] The effect of the test compounds in combination with imipenem, ceftazidime, and ampicillin was also tested. […] The bacterial inocula in the assay plates were resuscitated from TSA and diluted in CAMHB, while growth controls (GC wells) and sterile controls (SC wells) were set up in the assay plates. The minimum inhibitory concentration of each compound combination against different bacteria was observed and recorded after the assay plates were incubated in a common incubator at 35±2° C. for 16-20 h, and the results are shown in Tables 1-3.

[2] = test system: Acinetobacter baumannii XNWB 0007; assay: as above; details: imipenem 4 μg/mL fixed
Method: as §1

[3] = test system: Klebsiella pneumoniae XNWB 0001; assay: as above; details: imipenem 4 μg/mL fixed
Method: as §1

[4] = test system: Klebsiella pneumoniae XNWB 0002; assay: as above; details: imipenem 4 μg/mL fixed
Method: as §1

[5] = test system: Pseudomonas aeruginosa XNWB 0008; assay: as above; details: imipenem 4 μg/mL fixed
Method: as §1

[6] = test system: Klebsiella pneumoniae XNWB 0006; assay: as above; details: imipenem 4 μg/mL fixed
Method: as §1

[7] = test system: Klebsiella pneumoniae XNWB 0003; assay: as above; details: imipenem 4 μg/mL fixed
Method: as §1

[8] = test system: Klebsiella pneumoniae XNWB 0005; assay: as above; details: imipenem 4 μg/mL fixed
Method: as §1

[9] = test system: Klebsiella pneumoniae XNWB 0004; assay: MIC assay of test compounds combined with ceftazidime (8 μg/mL); details: ceftazidime 8 μg/mL fixed
Method: as §1

[10] = test system: Acinetobacter baumannii XNWB 0007; assay: as above; details: ceftazidime 8 μg/mL fixed
Method: as §1

[11] = test system: Klebsiella pneumoniae XNWB 0001; assay: as above; details: ceftazidime 8 μg/mL fixed
Method: as §1

[12] = test system: Klebsiella pneumoniae XNWB 0002; assay: as above; details: ceftazidime 8 μg/mL fixed
Method: as §1

[13] = test system: Pseudomonas aeruginosa XNWB 0008; assay: as above; details: ceftazidime 8 μg/mL fixed
Method: as §1

[14] = test system: Klebsiella pneumoniae XNWB 0006; assay: as above; details: ceftazidime 8 μg/mL fixed
Method: as §1

[15] = test system: Klebsiella pneumoniae XNWB 0003; assay: as above; details: ceftazidime 8 μg/mL fixed
Method: as §1

[16] = test system: Klebsiella pneumoniae XNWB 0005; assay: as above; details: ceftazidime 8 μg/mL fixed
Method: as §1

Row | Structure (SMILES) | The minimum concentration of test compounds combined with imipenem (4 μg/mL) for bacteriostasis [1] | The minimum concentration of test compounds combined with imipenem (4 μg/mL) for bacteriostasis [2] | The minimum concentration of test compounds combined with imipenem (4 μg/mL) for bacteriostasis [3] | The minimum concentration of test compounds combined with imipenem (4 μg/mL) for bacteriostasis [4] | The minimum concentration of test compounds combined with imipenem (4 μg/mL) for bacteriostasis [5] | The minimum concentration of test compounds combined with imipenem (4 μg/mL) for bacteriostasis [6] | The minimum concentration of test compounds combined with imipenem (4 μg/mL) for bacteriostasis [7] | The minimum concentration of test compounds combined with imipenem (4 μg/mL) for bacteriostasis [8] | The minimum concentration of test compounds combined with ceftazidime (8 μg/mL) for bacteriostasis [9] | The minimum concentration of test compounds combined with ceftazidime (8 μg/mL) for bacteriostasis [10] | The minimum concentration of test compounds combined with ceftazidime (8 μg/mL) for bacteriostasis [11] | The minimum concentration of test compounds combined with ceftazidime (8 μg/mL) for bacteriostasis [12] | The minimum concentration of test compounds combined with ceftazidime (8 μg/mL) for bacteriostasis [13] | The minimum concentration of test compounds combined with ceftazidime (8 μg/mL) for bacteriostasis [14] | The minimum concentration of test compounds combined with ceftazidime (8 μg/mL) for bacteriostasis [15] | The minimum concentration of test compounds combined with ceftazidime (8 μg/mL) for bacteriostasis [16]
1 | NC(=O)[C@@H]1CC[C@@H]2CN1C(=O)N2OS(=O)(=O)O [Avibactam, reference compound] | A (A: <8 μg/mL) | C (C: 16-128 μg/mL) | A (A: <8 μg/mL) | A (A: <8 μg/mL) | A (A: <8 μg/mL) | A (A: <8 μg/mL) | A (A: <8 μg/mL) | A (A: <8 μg/mL) | A (A: <8 μg/mL) | C (C: 16-128 μg/mL) | A (A: <8 μg/mL) | A (A: <8 μg/mL) | A (A: <8 μg/mL) | A (A: <8 μg/mL) | A (A: <8 μg/mL) | A (A: <8 μg/mL)
2 | O=C(NC1CCNC1)[C@@H]1CC2(CC2)[C@@H]2CN1C(=O)N2OS(=O)(=O)O (stereo partly drawn) [Example 28, (1R,4S)-6-oxo-4-(pyrrolidin-3-ylaminoformyl)-5,7-diazaspiro[bicyclo[3.2.1]octane-2,1′-cyclopropan]-7-yl sulfate] | A (A: <8 μg/mL) | C (C: 16-128 μg/mL) | A (A: <8 μg/mL) | A (A: <8 μg/mL) | A (A: <8 μg/mL) | A (A: <8 μg/mL) | A (A: <8 μg/mL) | A (A: <8 μg/mL) | B (B: 8-16 μg/mL) | C (C: 16-128 μg/mL) | A (A: <8 μg/mL) | A (A: <8 μg/mL) | A (A: <8 μg/mL) | A (A: <8 μg/mL) | A (A: <8 μg/mL) | A (A: <8 μg/mL)
3 | N=C(N)N1CC(NCc2cc([C@@H]3CC4(CC4)[C@@H]4CN3C(=O)N4OS(=O)(=O)O)no2)C1 [Example 51, (1R,4S)-4-(5-(((1-amidinoazetidin-3-yl)amino)methyl)isoxazol-3-yl)-6-oxo-5,7-diazaspiro[bicyclo[3.2.1]octane-2,1′-cyclopropan]-7-yl sulfate] | A (A: <8 μg/mL) | C (C: 16-128 μg/mL) | A (A: <8 μg/mL) | A (A: <8 μg/mL) | A (A: <8 μg/mL) | A (A: <8 μg/mL) | A (A: <8 μg/mL) | A (A: <8 μg/mL) | C (C: 16-128 μg/mL) | C (C: 16-128 μg/mL) | A (A: <8 μg/mL) | A (A: <8 μg/mL) | B (B: 8-16 μg/mL) | A (A: <8 μg/mL) | B (B: 8-16 μg/mL) | B (B: 8-16 μg/mL)
4 | CN(Cc1cc([C@@H]2CC3(CC3)[C@@H]3CN2C(=O)N3OS(=O)(=O)O)no1)C(=N)N [Example 33, (1R,4S)-4-(5-((1-methylguanidino)methyl)isoxazol-3-yl)-6-oxo-5,7-diazaspiro[bicycle [3.2.1]octane-2,1′-cyclopropan]-7-yl sulfate] | A (A: <8 μg/mL) | C (C: 16-128 μg/mL) | A (A: <8 μg/mL) | A (A: <8 μg/mL) | B (B: 8-16 μg/mL) | A (A: <8 μg/mL) | A (A: <8 μg/mL) | A (A: <8 μg/mL) | C (C: 16-128 μg/mL) | C (C: 16-128 μg/mL) | B (B: 8-16 μg/mL) | A (A: <8 μg/mL) | C (C: 16-128 μg/mL) | A (A: <8 μg/mL) | C (C: 16-128 μg/mL) | B (B: 8-16 μg/mL)
5 | N=C(N)NCCc1cc([C@@H]2CC3(CC3)[C@@H]3CN2C(=O)N3OS(=O)(=O)O)no1 [Example 36, (1R,4S)-4-(5-(2-guanidinoethyl)isoxazol-3-yl)-6-oxo-5,7-diazaspiro[bicyclo[3.2.1]octane-2,1′-cyclopropan]-7-yl sulfate] | A (A: <8 μg/mL) | C (C: 16-128 μg/mL) | A (A: <8 μg/mL) | A (A: <8 μg/mL) | A (A: <8 μg/mL) | A (A: <8 μg/mL) | A (A: <8 μg/mL) | A (A: <8 μg/mL) | B (B: 8-16 μg/mL) | C (C: 16-128 μg/mL) | A (A: <8 μg/mL) | A (A: <8 μg/mL) | B (B: 8-16 μg/mL) | A (A: <8 μg/mL) | A (A: <8 μg/mL) | A (A: <8 μg/mL)
